Like-named read-outs stand apart in the source and are kept apart here.
Experiments:
[1] = system: Oligodendrocyte progenitor cells (OPCs); assay: In vitro OPC differentiation assay, GPR17 expression (immunocytochemistry); details: 72 hours; for GPR17 Fold Induction (Over Vehicle; 3 μM): 3 μM (10× concentration, final 0.3 μM)
Method: To assess the effects of the PDGFRα inhibitors on OPC differentiation, primary OPCs were cultured and exposed to compounds. The number of newly generated oligodendrocytes was assessed by monitoring GPR17 expression. GPR17 is preferentially expressed in actively differentiating oligodendrocytes, allowing them to be distinguished from precursors and more differentiated oligodendrocytes.
Cortices from postnatal day (P) 1-3 rats were dissected and collected into ice cold Hank's Balanced Salt Solution (HBSS). […] Briefly, the cortical cell suspension was centrifuged and washed with buffer (0.5% BSA in PBS) and labeled with Anti-A2B^5 MicroBeads (10 μL beads per 1×10^7 cells) for 15 minutes at 4° C. Following the incubation, cells were washed once with BSA buffer to remove unlabeled beads. A2B^5 positive cells were eluted on the column using the AutoMACS® (Miltenyi, as per manufacturer's protocol using “Possel-s” program). Eluted cells were further washed twice with OPC growth media. Cell counts were performed using Countess III cell counter (ThermoFisher; AMQAX2000) and cells were plated.
The plates were allowed to sit at room temperature for 15 minutes to ensure proper dispersion of cells in a well. The plates were then transferred to the incubator (37° C.; 5% CO2).
Cells were then incubated for 72 hours at 37° C., 5% CO2 before immunostaining for GPR17 marker expression.
Following 72 hours in culture, cells were fixed with 4% paraformaldehyde for 15 minutes and then washed three times in Dulbecco's phosphate buffered saline (DPBS). Prior to immunostaining, cells were treated with a blocking solution (10% normal goat serum containing 1% BSA and 0.1% Triton® X-100 in DPBS) for 15 minutes at room temperature. Primary antibody (anti-GPR17 at 1:2000; Origene TA811615) was applied to cells overnight at 4° C. in incubation solution containing 1% normal goat serum, 1% BSA, and 0.1% Triton X-100 in DPBS. […] The secondary antibody was applied in incubation solution for 2 hours at room temperature, protected from light.
The number of differentiated GPR17+ cells was normalized to the total nuclei count and percent differentiated GPR17+ cells were reported. Statistical analysis was done using one-way ANOVA with multiple comparisons and post-hoc Tukey test in GraphPad Prism (GraphPad Software).

[2] = molecular target: PDGFRα (Homo sapiens (Human), UniProt P16234); assay: PDGFRα kinase enzyme assay (Promega PDGFRα Kinase Enzyme System, ADP-Glo); format: biochemical; details: 150 uM ATP
Sequence of PDGFRα (P16234 24-1089): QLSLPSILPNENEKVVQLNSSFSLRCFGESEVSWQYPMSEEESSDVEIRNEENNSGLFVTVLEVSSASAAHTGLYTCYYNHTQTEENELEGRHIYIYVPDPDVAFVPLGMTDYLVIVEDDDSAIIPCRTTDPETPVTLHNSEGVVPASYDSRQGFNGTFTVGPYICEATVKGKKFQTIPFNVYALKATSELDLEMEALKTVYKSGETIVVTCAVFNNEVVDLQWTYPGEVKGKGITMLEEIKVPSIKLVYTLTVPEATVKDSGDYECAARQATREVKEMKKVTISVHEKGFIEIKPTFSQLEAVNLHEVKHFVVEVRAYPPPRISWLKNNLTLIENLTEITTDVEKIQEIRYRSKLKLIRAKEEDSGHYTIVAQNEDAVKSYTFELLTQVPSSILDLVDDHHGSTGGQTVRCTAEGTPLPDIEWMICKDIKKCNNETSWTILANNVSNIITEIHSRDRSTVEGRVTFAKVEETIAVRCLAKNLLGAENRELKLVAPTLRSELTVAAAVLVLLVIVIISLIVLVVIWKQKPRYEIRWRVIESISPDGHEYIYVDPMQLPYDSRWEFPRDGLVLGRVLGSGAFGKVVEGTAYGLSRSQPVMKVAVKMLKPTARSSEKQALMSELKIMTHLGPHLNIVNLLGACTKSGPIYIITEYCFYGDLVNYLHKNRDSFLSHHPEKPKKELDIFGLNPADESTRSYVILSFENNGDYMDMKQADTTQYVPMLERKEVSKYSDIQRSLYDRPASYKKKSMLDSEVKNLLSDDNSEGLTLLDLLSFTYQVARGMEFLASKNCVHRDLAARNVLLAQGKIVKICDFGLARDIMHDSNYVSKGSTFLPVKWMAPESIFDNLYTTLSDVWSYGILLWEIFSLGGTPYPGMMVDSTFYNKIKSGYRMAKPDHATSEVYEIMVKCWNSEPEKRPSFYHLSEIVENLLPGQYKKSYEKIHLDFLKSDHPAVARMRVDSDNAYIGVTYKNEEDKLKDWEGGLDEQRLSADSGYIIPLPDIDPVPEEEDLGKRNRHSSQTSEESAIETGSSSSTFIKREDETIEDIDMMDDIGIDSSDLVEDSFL
Method: The PDGFRα enzyme assays were conducted per the manufacturer's directions (Promega PDGFRα Kinase Enzyme System and ADP Glo Assay Cat #V8011). […] 20 ng of purified PDGFRα protein was added to the test article. […] ADP-Glo was added to halt the kinase reaction and deplete the remaining ATP. Kinase detection reagent, containing luciferase and luciferin, was used to convert the ADP signal into luminescence. Luminescence was measured using a Molecular Devices Spectramax ID5 and compared to a standard curve to determine kinase activity. IC50s were calculated using Prism 9, Graphpad software.

[3] = 11-point dose response, 10,000 nM to 0.169 nM, BLQ = below limit of quantitation, read-out: IC50 Values on PDGFRα Kinase Inhibition, IC50

SMILES | GPR17 Fold Induction (Over Vehicle; 3 μM) ([1]; fold change over vehicle) | IC50 [2, 3] [µM] | GPR17 Fold Induction (Over Vehicle; 5 μM) ([1]; 5 μM (10× concentration, final 0.5 μM), fold change over vehicle) | GPR17 Fold Induction (Over Vehicle; 5 μM) ([1]; primary rat OPCs, 5 μM (10x; final 0.5 μM per method), percent GPR17+ cells as fold change over vehicle) | IC50 ([2]; 20 ng purified PDGFRα, Poly (Glu4Tyr1) substrate, two hours, 11-point dose response, read-out: IC50 Values on PDGFRα Kinase Inhibition) [µM]
CN(CCN(C)c1cnc2cc(-c3cccnc3)ncn12)C(=O)OC(C)(C)C [Compound 99, tert-butyl methyl(2-(methyl(7-(pyridin-3-yl)imidazo[1,2-c]pyrimidin-3-yl)amino)ethyl)carbamate] | 0.62 | > 10 | – | – | –
Cn1cc(-c2ccc3c(N4CCN(c5ncc(CC(O)c6ccccc6)cn5)CC4)cnn3c2)cn1 (stereo not drawn) [Compound 164, 2-(2-(4-(6-(1-methyl-1H-pyrazol-4-yl)pyrazolo[1,5-a]pyridin-3-yl)piperazin-1-yl)pyrimidin-5-yl)-1-phenylethan-1-ol] | 5.94 | 0.784 | – | – | –
COc1ccc(-c2cncc(N[C@@H](C)c3cccc(NC(=O)c4cncc(C)c4)c3)n2)cc1OC [Seralutinib, seralutinib, reference compound] | – | – | – | 3.53 | 0.228
Cn1cc(-c2ccn3c(N4CCN(c5ncc(Cc6ccccc6)cn5)CC4)nnc3c2)cn1 [Compound 24, 3-[4-(5-benzylpyrimidin-2-yl)piperazin-1-yl]-7-(1-methyl-1H-pyrazol-4-yl)[1,2,4]triazolo[4,3-a]pyridine] | 0.54 | > 10 | – | – | –
Cn1cc(-c2ccc3c(N4CCCN(C(=O)OC(C)(C)C)CC4)cnn3c2)cn1 [Compound 40, tert-butyl 4-(6-(1-methyl-1H-pyrazol-4-yl)pyrazolo[1,5-a]pyridin-3-yl)-1,4-diazepane-1-carboxylate] | 1.27 | 2.42 | – | – | –
CC1CN(c2cnn3cc(-c4cnn(C)c4)ccc23)CCN1c1ncc(Cc2ccccc2)cn1 (stereo not drawn) [Compound 143, 3-(4-(5-benzylpyrimidin-2-yl)-3-methylpiperazin-1-yl)-6-(1-methyl-1H-pyrazol-4-yl)pyrazolo[1,5-a]pyridine] | 3.89 | 0.616 | – | – | –
Cn1cc(-c2ccc3c(N4CCC(C(=O)OCc5ccccc5)CC4)cnn3c2)cn1 [Compound 145, benzyl 1-(6-(1-methyl-1H-pyrazol-4-yl)pyrazolo[1,5-a]pyridin-3-yl)piperidine-4-carboxylate] | 1.73 | 6.97 | – | – | –
Cn1cc(-c2ccn3c(N4CCN(C(=O)NCc5ccc(C(F)(F)F)cc5)CC4)cnc3n2)cn1 [Compound 119, 4-(7-(1-methyl-1H-pyrazol-4-yl)imidazo[1,2-a]pyrimidin-3-yl)-N-(4-(trifluoromethyl)benzyl)piperazine-1-carboxamide] | 8.04 | 1.71 | – | – | –
Cn1cc(-c2ccc3c(NCCCNc4ncc(Cc5ccccc5)cn4)cnn3c2)cn1 [Compound 124, N^1-(5-benzylpyrimidin-2-yl)-N^3-(6-(1-methyl-1H-pyrazol-4-yl)pyrazolo[1,5-a]pyridin-3-yl)propane-1,3-diamine] | 1.47 | > 10 | – | – | –
Cn1cc(-c2cn3ncc(N4CCN(c5ncc(Cc6ccccc6)cn5)CC4)c3cn2)cn1 [Compound 22, 3-[4-(5-Benzylpyrimidin-2-yl)piperazin-1-yl]-6-(1-methyl-1H-pyrazol-4-yl)pyrazolo[1,5-a]pyrazine] | 6.13 | > 10 | 3.46 | – | –
Cn1cc(-c2ccc3c(N4CCN(C(=O)OC(C)(C)C)CC4)cnn3n2)cn1 [Compound 45, Tert-butyl 4-[6-(1-methyl-1H-pyrazol-4-yl)pyrazolo[1,5-b]pyridazin-3-yl]piperazine-1-carboxylate] | 1.39 | 1.39 | – | – | –
CN(CCN(C)c1cnc2nc(-c3cnn(C)c3)ccn12)C(=O)OC(C)(C)C [Compound 96] | 0.50 | > 10 | – | – | –
Cn1cc(-c2ccc3c(C4=CCN(c5ncc(Cc6ccccc6)cn5)CC4)cnn3c2)cn1 [Compound 60, 3-[1-(5-benzylpyrimidin-2-yl)-1,2,3,6-tetrahydropyridin-4-yl]-6-(1-methyl-1H-pyrazol-4-yl)pyrazolo[1,5-a]pyridine] | 2.92 | 5.03 | – | – | –
C[C@@H](OC(=O)N1CCN(c2cnn3cc(-c4cnn(C)c4)ccc23)CC1)C1CCCCC1 [Compound 57, (1R)-1-cyclohexylethyl 4-[6-(1-methyl-1H-pyrazol-4-yl)pyrazolo[1,5-a]pyridin-3-yl]piperazine-1-carboxylate] | 5.28 | 5.58 | – | – | –
C[C@@H](OC(=O)N1CCN(c2cnc3cc(-c4cnn(C)c4)ncn23)CC1)c1ccccc1 [Compound 115, (R)-1-phenylethyl 4-(7-(1-methyl-1H-pyrazol-4-yl)imidazo[1,2-c]pyrimidin-3-yl)piperazine-1-carboxylate] | 2.46 | > 10 | – | – | –
Cn1cc(-c2ccc3c(N4CCN(c5nsc(Cc6ccccc6)n5)CC4)cnn3c2)cn1 [Compound 154, 5-benzyl-3-(4-(6-(1-methyl-1H-pyrazol-4-yl)pyrazolo[1,5-a]pyridin-3-yl)piperazin-1-yl)-1,2,4-thiadiazole] | 13.45 | 0.697 | – | – | –
Cn1cc(-c2ccc3c(N4CC(Nc5ncc(Cc6ccccc6)cn5)C4)cnn3c2)cn1 [Compound 149, 5-benzyl-N-(1-(6-(1-methyl-1H-pyrazol-4-yl)pyrazolo[1,5-a]pyridin-3-yl)azetidin-3-yl)pyrimidin-2-amine] | 8.88 | > 10 | – | – | –

The next lines start with results.

GPR17 Fold Induction (Over Vehicle; 3 μM) ([1]; fold change over vehicle) | IC50 [2, 3] [µM] | GPR17 Fold Induction (Over Vehicle; 5 μM) ([1]; 5 μM (10× concentration, final 0.5 μM), fold change over vehicle) | SMILES | GPR17 Fold Induction (Over Vehicle; 5 μM) ([1]; primary rat OPCs, 5 μM (10x; final 0.5 μM per method), percent GPR17+ cells as fold change over vehicle) | IC50 ([2]; 20 ng purified PDGFRα, Poly (Glu4Tyr1) substrate, two hours, 11-point dose response, read-out: IC50 Values on PDGFRα Kinase Inhibition) [µM]
4.67 | 9.41 | – | CC1CN(C(=O)OC(C)(C)C)CCN1c1cnn2cc(-c3cnn(C)c3)ccc12 (stereo not drawn) [Compound 240, tert-butyl 3-methyl-4-(6-(1-methyl-1H-pyrazol-4-yl)pyrazolo[1,5-a]pyridin-3-yl)piperazine-1-carboxylate] | – | –
10.61 | 0.363 | – | CC(C)(C)OC(=O)N1CCN(c2cnn3cc(-c4cn(CCO)cn4)ccc23)CC1 [Compound 229, tert-butyl 4-(6-(1-(2-hydroxyethyl)-1H-imidazol-4-yl)pyrazolo[1,5-a]pyridin-3-yl)piperazine-1-carboxylate] | – | –
1.35 | > 10 | – | CCCc1ccc2c(N3CCN(C(=O)OC(C)(C)C)CC3)cnn2c1 [Compound 203, tert-butyl 4-(6-propylpyrazolo[1,5-a]pyridin-3-yl)piperazine-1-carboxylate] | – | –
3.46 | 2.31 | – | CC(C)(C)OC(=O)N1CCN(c2cnn3cc(-c4ccncc4)ccc23)CC1 [Compound 218, tert-butyl 4-(6-(pyridin-4-yl)pyrazolo[1,5-a]pyridin-3-yl)piperazine-1-carboxylate] | – | –
5.33 | > 10 | – | Cn1cc(-c2ccc3c(N4CCN(c5ncc(Cc6cocn6)cn5)CC4)cnn3c2)cn1 [Compound 171, 4-((2-(4-(6-(1-methyl-1H-pyrazol-4-yl)pyrazolo[1,5-a]pyridin-3-yl)piperazin-1-yl)pyrimidin-5-yl)methyl)oxazole] | – | –
10.47 | 0.00056 | – | [2H]C1([2H])N(C(=O)O[C@H](C)c2ccc(Cl)cc2)C([2H])([2H])C([2H])([2H])N(c2cnn3cc(-c4cnn(C)c4)ccc23)C1([2H])[2H] [Compound 290, (R)-1-(4-chlorophenyl)ethyl 4-(6-(1-methyl-1H-pyrazol-4-yl)pyrazolo[1,5-a]pyridin-3-yl)piperazine-1-carboxylate-2,2,3,3,5,5,6,6-d8] | – | –
9.78 | 0.05 | – | Cn1cc(-c2ccc3c(N4CCN(S(=O)(=O)NCc5ccc(Cl)cc5)CC4)cnn3c2)cn1 [Compound 292, N-(4-chlorobenzyl)-4-(6-(1-methyl-1H-pyrazol-4-yl)pyrazolo[1,5-a]pyridin-3-yl)piperazine-1-sulfonamide] | – | –
4.86 | > 10 | – | CC1CC(COC(=O)N2CCN(c3cnn4cc(-c5cnn(C)c5)ccc34)CC2)C1 (stereo not drawn) [Compound 310, (3-methylcyclobutyl)methyl 4-[6-(1-methyl-1H-pyrazol-4-yl)pyrazolo[1,5-a]pyridin-3-yl]piperazine-1-carboxylate] | – | –
6.36 | 3.57 | – | Cn1cc(-c2ccc3c(N4CCN(c5ncc(Oc6ccccc6)cn5)CC4)cnn3c2)cn1 [Compound 166, 6-(1-methyl-1H-pyrazol-4-yl)-3-(4-(5-phenoxypyrimidin-2-yl)piperazin-1-yl)pyrazolo[1,5-a]pyridine] | – | –
0.76 | > 10 | – | CC(C)(C)OC(=O)N1CCN(c2cnn3cc(C4CCC(O)C4)ccc23)CC1 (stereo not drawn) [Compound 215, tert-butyl 4-[6-(3-hydroxycyclopentyl)pyrazolo[1,5-a]pyridin-3-yl]piperazine-1-carboxylate] | – | –
23.57 | 0.287 | – | Cn1cc(-c2ccc3c(N4CCN(c5ncc(Cn6ccc7ccccc76)cn5)CC4)cnn3c2)cn1 [Compound 191, 3-(4-(5-((1H-indol-1-yl)methyl)pyrimidin-2-yl)piperazin-1-yl)-6-(1-methyl-1H-pyrazol-4-yl)pyrazolo[1,5-a]pyridine] | – | –

Reference: US20250129067A1 (Progentos Therapeutics, Inc., priority 2021, published 2025)
